Assay [1] has as its system MMP1 expression by activated primary synovial fibroblasts. The experiment in a line: 'MMP assay': MMP1 expression by complex trigger activated synovial fibroblasts (MMP1 ELISA). It counts as cell-based. Conditions: Homo sapiens, Fibroblast; for EC50: RASFs, complex trigger, 48 hrs, MMP1 ELISA. (In an ELISA, binding on a coated surface is turned into a signal by an enzyme label.)

The next assay has as its target T1, MAPKAPK5 (Homo sapiens, UniProt Q8IW41).
T1 sequence (Q8IW41 1-471 isoform Q8IW41-2): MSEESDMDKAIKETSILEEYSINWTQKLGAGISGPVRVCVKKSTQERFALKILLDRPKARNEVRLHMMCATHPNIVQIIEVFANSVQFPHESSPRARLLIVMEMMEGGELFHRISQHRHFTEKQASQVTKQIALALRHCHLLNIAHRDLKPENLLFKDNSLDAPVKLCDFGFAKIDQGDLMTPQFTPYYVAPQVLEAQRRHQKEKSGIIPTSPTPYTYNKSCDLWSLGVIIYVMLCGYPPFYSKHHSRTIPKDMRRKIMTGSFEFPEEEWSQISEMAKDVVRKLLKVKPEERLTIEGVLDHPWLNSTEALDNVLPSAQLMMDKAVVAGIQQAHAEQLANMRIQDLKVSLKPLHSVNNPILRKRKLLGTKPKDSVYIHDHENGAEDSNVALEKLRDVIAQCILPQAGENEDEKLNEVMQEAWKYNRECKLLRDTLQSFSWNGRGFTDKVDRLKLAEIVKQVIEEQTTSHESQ
The experiment in a line: MAPKAP-K5 assay (FlashPlate kinase assay).

For orientation: EC50 means the concentration at which the effect is half-maximal. A low value points to higher potency in that assay. As usually defined, the IC50 is the concentration needed to halve the response being measured. Turning to `CC(C)N1CCN(c2ccc(Nc3ncc(-c4cn[nH]c4)n4ncnc34)cn2)CC1` [Compound 43, [6-(4-Isopropylpiperazin-1-yl)pyridin-3-yl]-[5-(1H-pyrazol-4-yl)-[1,2,4]triazolo[1,5-a]pyrazin-8-yl]amine], in assay [1] (Table 3), the EC50 was above 1 µM. This compound also gave an IC50 against MAPKAPK5 above 1 µM.
On to `CC(C)N1CCN(c2ccc(Nc3ncc(-c4csc(C(N)=O)c4)n4ncnc34)cn2)CC1` [Compound 55, 4-{8-[6-(4-Isopropylpiperazin-1-yl)pyridin-3-ylamino]-[1,2,4]triazolo[1,5-a]pyrazin-5-yl}thiophene-2-carboxylic acid amide], for which the EC50 in assay [1] (Table 3) fell in the range of 0.101 to 0.5 µM. The same compound registered an IC50 at MAPKAPK5 of 0.101 to 0.5 µM.
Turning to `NC(=O)c1cccc2c(-c3cnc(Nc4ccc(N5CCOCC5)cc4)c4ncnn34)csc12` [Compound 80, 3-[8-(4-Morpholin-4-ylphenylamino)-[1,2,4]triazolo[1,5-a]pyrazin-5-yl]-benzo[b]thiophene-7-carboxylic acid amide], in assay [1] (Table 3), the EC50 is 0.101 to 0.5 µM. At MAPKAPK5, this compound gave an IC50 above 1 µM.
In assay [1] (Table 3), `OCc1cc(-c2cnc(Nc3ccc(N4CCOCC4)cc3)c3ncnn23)ccn1` [Compound 82] displayed an EC50 above 1 µM. Also, at MAPKAPK5, the half-maximal inhibitory concentration (IC50) was above 1 µM.
In assay [1] (Table 3), `CC(C)N1CCN(c2ccc(Nc3ncc(-c4ccnc(CO)c4)n4ncnc34)cc2)CC1` [Compound 83, (4-{8-[4-(4-Isopropylpiperazin-1-yl)-phenylamino]-[1,2,4]triazolo[1,5-a]pyrazin-5-yl}pyridin-2-yl)methanol] had an EC50 above 1 µM. The IC50 against MAPKAPK5 was above 1 µM.
In turn, `CC(C)N1CCN(c2ccc(Nc3ncc(-c4coc(C(N)=O)c4)n4ncnc34)cc2)CC1` [Compound 88, 4-(8-(4-(4-Isopropylpiperazin-1-yl)phenylamino)-[1,2,4]triazolo[1,5-a]pyrazin-5-yl)furan-2-carboxamide] returned an EC50 in assay [1] (Table 3) of 0.501 to 1 µM. The same compound showed an IC50 against MAPKAPK5 of 0.001 to 0.1 µM.
For the compound `c1nc2c(Nc3ccc(N4CCOCC4)cc3)ncc(-c3ccc4cn[nH]c4c3)n2n1` [Compound 93], the EC50 in assay [1] (Table 3) was above 1 µM. On MAPKAPK5, the IC50 was above 1 µM.
In turn, `Cc1sc(C(N)=O)cc1-c1cnc(Nc2ccc(N3CCN(C(C)C)CC3)cc2)c2ncnn12` [Compound 95] registered an EC50 in assay [1] (Table 3) above 1 µM. Further, at MAPKAPK5, the 50% inhibitory concentration (IC50) was above 1 µM.
As to `Cc1sc(C(N)=O)cc1-c1cnc(Nc2ccc(N3CCN(C(C)C)CC3)nc2)c2ncnn12` [Compound 96], the concentration for a half-maximal effect (EC50) in assay [1] (Table 3) is above 1 µM. This compound also registered a concentration for half-maximal inhibition (IC50) at MAPKAPK5 above 1 µM.
On to `CC(C)N1CCN(c2ccc(Nc3ncc(-c4cccc5c4CNC5=O)n4ncnc34)cc2)CC1` [Compound 97], for which the EC50 in assay [1] (Table 3) was above 1 µM. The IC50 at MAPKAPK5 was above 1 µM.
Take `CC(C)N1CCN(c2ccc(Nc3ncc(-c4cccc5c4CNC5=O)n4ncnc34)cn2)CC1` [Compound 98]: the concentration giving a half-maximal response (EC50) in assay [1] (Table 3) was above 1 µM. This compound also had an IC50 at MAPKAPK5 above 1 µM.
`O=C1CNCCN1c1ccc(Nc2ncc(-c3cn[nH]c3)n3ncnc23)cc1` [Compound 100, 1-(4-(5-(1H-Pyrazol-4-yl)-[1,2,4]triazolo[1,5-a]pyrazin-8-ylamino)phenyl)piperazin-2-one] registered a half-maximal effective concentration (EC50) in assay [1] (Table 3) above 1 µM. The same compound had an IC50 against MAPKAPK5 above 1 µM.
With `CC(C)N1CCN(c2ccc(Nc3ncc(-c4ccc5cn[nH]c5c4)n4ncnc34)cc2)CC1` [Compound 106], the IC50 on MAPKAPK5 is above 1 µM.
As for `CC(C)N1CCN(c2ccc(Nc3ncc(-c4ccc5c(c4)C(=O)NC5)n4ncnc34)cc2)CC1` [Compound 109], the EC50 in assay [1] (Table 3) was above 1 µM. The compound also yielded an IC50 on MAPKAPK5 above 1 µM.
In assay [1] (Table 3), `O=C1NCc2oc(-c3cnc(Nc4ccc(N5CCOCC5)cc4)c4ncnn34)cc21` [Compound 111] came in with an EC50 above 1 µM. On MAPKAPK5, the IC50 is 0.101 to 0.5 µM.
The compound `CC(C)N1CCN(c2ccc(Nc3ncc(-c4ccc5c(c4)CNC5=O)n4ncnc34)cc2)C(=O)C1` [Compound 112, 5-(8-(4-(4-Isopropyl-2-oxopiperazin-1-yl)phenylamino)-[1,2,4]triazolo[1,5-a]pyrazin-5-yl)isoindolin-1-one] came in with an EC50 in assay [1] (Table 3) above 1 µM. The compound further gave a half-inhibitory concentration (IC50) on MAPKAPK5 of 0.101 to 0.5 µM.
For `CC(C)N1CCN(c2ccc(Nc3ncc(-c4ccc5c(c4)C(C)(C)NC5=O)n4ncnc34)cc2)CC1` [Compound 114, 5-{8-[4-(4-Isopropylpiperazin-1-yl)-phenylamino]-[1,2,4]triazolo[1,5-a]pyrazin-5-yl}-3,3-dimethyl-2,3-dihydroisoindol-1-one] the same measures were above 1 µM and above 1 µM.
Turning to `O=C(NCc1cccnc1)c1ccc(Nc2ncc(-c3cn[nH]c3)n3ncnc23)cc1` [Compound 118, 4-(5-(1H-Pyrazol-4-yl)-[1,2,4]triazolo[1,5-a]pyrazin-8-ylamino)-N-(pyridin-3-ylmethyl)benzamide], the EC50 in assay [1] (Table 4) was above 1 µM. Besides, the IC50 against MAPKAPK5 was above 1 µM.
In the case of `O=C(NCc1cccnc1)c1ccc(Nc2ncc(-c3cc[nH]c(=O)c3)n3ncnc23)cc1` [Compound 119, 4-(5-(2-Oxo-1,2-dihydropyridin-4-yl)-[1,2,4]triazolo[1,5-a]pyrazin-8-ylamino)-N-(pyridin-3-ylmethyl)benzamide], the 50% effective concentration (EC50) in assay [1] (Table 4) is above 1 µM. This compound also displayed an IC50 against MAPKAPK5 above 1 µM.
For `COc1cc(Nc2ncc(-c3cn[nH]c3)n3ncnc23)ccc1C(=O)NCc1ccc(C)nc1` [Compound 120, 2-Methoxy-N-(6-methylpyridin-3-yl)methyl-4-[5-(1H-pyrazol-4-yl)-[1,2,4]triazolo[1,5-a]pyrazin-8-ylamino]-benzamide], in assay [1] (Table 4), the concentration giving a half-maximal response (EC50) was above 1 µM. Also, on MAPKAPK5, the IC50 is above 1 µM.
In assay [1] (Table 4), `COc1cc(Nc2ncc(-c3csc(C(N)=O)c3)n3ncnc23)ccc1C(=O)NCc1ccc(C)nc1` [Compound 121] gave an EC50 above 1 µM. This compound gave an IC50 at MAPKAPK5 above 1 µM.
`COc1cc(Nc2ncc(-c3cn[nH]c3)n3ncnc23)ccc1C(=O)NCc1ccccc1` [Compound 122, N-Benzyl-2-methoxy-4-[5-(1H-pyrazol-4-yl)-[1,2,4]triazolo[1,5-a]pyrazin-8-ylamino]-benzamide] showed an EC50 in assay [1] (Table 4) above 1 µM. Also, the IC50 at MAPKAPK5 was above 1 µM.
Consider `O=C(NCc1ccccc1)c1cccc(Nc2ncc(-c3cn[nH]c3)n3ncnc23)c1` [Compound 123], for which, in assay [1] (Table 4), the EC50 is above 1 µM. This compound also displayed an IC50 on MAPKAPK5 above 1 µM.
As for `O=C(NCc1ccccn1)c1cccc(Nc2ncc(-c3cn[nH]c3)n3ncnc23)c1` [Compound 124, N-Pyridin-2-ylmethyl 3-[5-(1H-pyrazol-4-yl)-[1,2,4]triazolo[1,5-a]pyrazin-8-ylamino]benzamide], the EC50 in assay [1] (Table 4) was above 1 µM. The IC50 on MAPKAPK5 is above 1 µM.
Consider `CCN(CC)C(=O)c1cccc(Nc2ncc(-c3cn[nH]c3)n3ncnc23)c1` [Compound 125], for which the EC50 in assay [1] (Table 4) was above 1 µM. The compound also displayed an IC50 against MAPKAPK5 above 1 µM.
The compound `O=C(c1cccc(Nc2ncc(-c3cn[nH]c3)n3ncnc23)c1)N1CCCC1` [Compound 126] yielded an EC50 in assay [1] (Table 4) above 1 µM. The compound also returned an IC50 on MAPKAPK5 above 1 µM.
`CC(C)N1CCN(C(=O)c2cccc(Nc3ncc(-c4cn[nH]c4)n4ncnc34)c2)CC1` [Compound 127, (4-Isopropylpiperazin-1-yl)-{3-[5-(1H-pyrazol-4-yl)-[1,2,4]triazolo[1,5-a]pyrazin-8-ylamino]phenyl}methanone] gave an EC50 in assay [1] (Table 4) above 1 µM. On MAPKAPK5, this compound showed an IC50 of 0.501 to 1 µM.
For `NC(=O)c1cccc(Nc2ncc(-c3cn[nH]c3)n3ncnc23)c1` [Compound 128] the same measures were above 1 µM and above 1 µM.
With `CCNC(=O)c1cccc(Nc2ncc(-c3cn[nH]c3)n3ncnc23)c1` [Compound 129, N-Ethyl 3-[5-(1H-pyrazol-4-yl)-[1,2,4]triazolo[1,5-a]pyrazin-8-ylamino]benzamide], the EC50 in assay [1] (Table 4) is above 1 µM. The same compound returned an IC50 against MAPKAPK5 above 1 µM.
For `O=C(Nc1ccc(Nc2ncc(-c3cn[nH]c3)n3ncnc23)cn1)c1ccccc1` [Compound 135], on MAPKAPK5, the IC50 was above 1 µM.
On the same count and under the same terms, to `O=C(c1ccc(Nc2ncc(-c3cn[nH]c3)n3ncnc23)cc1)N1CCN(Cc2ccc(F)cc2)CC1` [Compound 144] belongs 0.501 to 1 µM.
In assay [1] (Table 4), `CCN1CCC[C@H]1CNC(=O)c1ccc(Nc2ncc(-c3cn[nH]c3)n3ncnc23)cc1` [Compound 163] registered an EC50 above 1 µM.
As for `CN(C)Cc1cc(Nc2ncc(-c3ccc4c(c3)CNC4=O)n3ncnc23)ccc1N1CCOCC1` [Compound 175], in assay [1] (Table 3), the EC50 was above 1 µM.
The compound `CC(C)N1CCC(Nc2ncc(-c3ccc4c(c3)CNC4=O)n3ncnc23)CC1` [Compound 186] showed an IC50 on MAPKAPK5 above 1 µM.
On the same count and under the same terms, to `CC(C)N1CCCN(c2ccc(Nc3ncc(-c4cn[nH]c4)n4ncnc34)cc2)CC1` [Compound 187] belongs above 1 µM; to `CC(C)N1CCCN(c2ccc(Nc3ncc(-c4ccc5c(c4)CNC5=O)n4ncnc34)cc2)CC1` [Compound 188], 0.001 to 0.1 µM; to `COCCN1CCC(c2ccc(Nc3ncc(-c4ccc5c(c4)CNC5=O)n4ncnc34)cc2)CC1` [Compound 189], 0.001 to 0.1 µM.
Still for that read-out and setting: to `O=C(N[C@H]1CCN(Cc2ccccc2)C1)c1ccc(Nc2ncc(-c3cn[nH]c3)n3ncnc23)cc1` [Compound 191] belongs above 1 µM.
Turning to `C[C@@H]1C[C@H]2[C@@H]3CCC4=CC(=O)C=C[C@]4(C)[C@@]3(F)[C@@H](O)C[C@]2(C)[C@@]1(O)C(=O)CO` [dexamethasone, reference compound], the IC50 in assay [1] (complex trigger activated SFs, 48 hrs after treatment, FIG. 3, read-out: IC50 of reduction of MMP1 expression by SFs) was around 0.001 µM.

These data come from US20100298300A1, “TRIAZOLOPYRAZINE COMPOUNDS USEFUL FOR THE TREATMENT OF DEGENERATIVE & INFLAMMATORY DISEASES” (priority 2006, published 2010).
